Molecules are shown by their SMILES.

The nature of the test: Inhibition of tubulin microtubule disassembly.
For `CC(=O)O[C@H]1C[C@]2(C(C)(C)O)C(=C1C)[C@@H](OC(=O)c1ccccc1)[C@H](OC(=O)c1ccccc1)[C@]1(C)[C@@H](OC(C)=O)C[C@H]3OC[C@@]3(OC(C)=O)[C@H]1[C@@H]2OC(=O)c1ccccc1`, the ID50 is over 100 µM. The result for `C=C1[C@@H](O)C[C@H](OC(C)=O)[C@@]2(C)[C@@H](OC(C)=O)[C@H](OC(=O)c3ccccc3)C3=C(C)[C@@H](O)C[C@@]3(C(C)(C)O)[C@@H](OC(C)=O)[C@H]12` reads over 100 µM; that for `CC(=O)O[C@H]1C(=O)[C@]2(CO)[C@H](O)C[C@H]3OC[C@@]3(OC(C)=O)[C@H]2[C@H](OC(=O)c2ccccc2)[C@]2(O)C[C@H](O)C(C)=C1C2(C)C`, over 100 µM. The result for `CC(=O)O[C@H]1C[C@H]2OC[C@@]2(OC(C)=O)[C@H]2[C@H](OC(C)=O)[C@]3(C(C)(C)O)C[C@H](OC(=O)/C=C/c4ccccc4)C(C)=C3[C@@H](OC(=O)c3ccccc3)[C@H](OC(C)=O)[C@]12C` reads over 100 µM; that for `CC(=O)O[C@@]12CO[C@@H]1C[C@@H](O)[C@@]1(C)C(=O)C(=O)C3=C(C)[C@@H](O)C[C@@](O)([C@@H](OC(=O)c4ccccc4)[C@H]21)C3(C)C`, over 100 µM; that for `CC(=O)O[C@H]1C(=O)[C@@]2(C)[C@H]([C@H](OC(=O)c3ccccc3)[C@]3(O)C[C@H](OC(=O)[C@H](O)[C@@H](NC(=O)c4ccccc4)c4ccccc4)C(C)=C1C3(C)C)[C@]1(OC(C)=O)CO[C@@H]1C[C@@H]2O`, 0.29 µM.

(Values after ChEMBL document CHEMBL1147369, “Novel Diterpenoids from Taxus chinensis” (J Nat Prod, 1993).)
